Assay results: the NIST ThermoML archive (doi:10.1021/je300873x)

Experiment: mn = molality of the nth substance listed, in mol/kg
Conditions: for surface tension liquid-gas: Pendant drop shape; for electrical conductivity: Liquid, Digital conductivity meter

O [water] + CCCCCCCCCCCCCCCC[N+](C)(CCO)CCO.[Br-]
Conditions | surface tension liquid-gas [mN/m]
298.15 K, m2 = 0 | 72.17

CCCCCCCCCCCC[N+](C)(CCO)CCO.[Br-] [N,N-bis(2-hydroxyethyl)-N-methyldodecan-1-aminium bromide] + O
Conditions | electrical conductivity [S/m] | surface tension liquid-gas [mN/m]
298.15 K, m1 = 0.00097 | – | 68.8
298.15 K, m1 = 0.00193 | – | 62.75
298.15 K, m1 = 0.00387 | – | 54.86
298.15 K, m1 = 0.0058 | – | 48.7
298.15 K, m1 = 0.00773 | – | 45.46
298.15 K, m1 = 0.0095 | 0.0822 | –
298.15 K, m1 = 0.00967 | – | 41.58
298.15 K, m1 = 0.00997 | 0.0859 | –
298.15 K, m1 = 0.0105 | 0.0903 | –
298.15 K, m1 = 0.01108 | 0.0948 | –
298.15 K, m1 = 0.0116 | – | 39.54
298.15 K, m1 = 0.01174 | 0.0998 | –
298.15 K, m1 = 0.01247 | 0.1051 | –
298.15 K, m1 = 0.01257 | – | 38.9
298.15 K, m1 = 0.01287 | 0.1075 | –
298.15 K, m1 = 0.0133 | 0.1097 | –
298.15 K, m1 = 0.01376 | 0.1114 | –
298.15 K, m1 = 0.01425 | 0.1126 | –
298.15 K, m1 = 0.0145 | – | 38.74
298.15 K, m1 = 0.01478 | 0.1144 | –
298.15 K, m1 = 0.01535 | 0.1155 | –
298.15 K, m1 = 0.01596 | 0.1171 | –
298.15 K, m1 = 0.01644 | – | 38.53
298.15 K, m1 = 0.01663 | 0.119 | –
298.15 K, m1 = 0.01735 | 0.1209 | –
298.15 K, m1 = 0.01814 | 0.1227 | –
298.15 K, m1 = 0.01901 | 0.1245 | –
298.15 K, m1 = 0.01956 | – | 38.53
298.15 K, m1 = 0.01996 | 0.1268 | –
298.15 K, m1 = 0.0291 | – | 38.45
298.15 K, m1 = 0.04849 | – | 38.36
303.15 K, m1 = 0.00949 | 0.091 | –
303.15 K, m1 = 0.00996 | 0.0952 | –
303.15 K, m1 = 0.01049 | 0.0996 | –
303.15 K, m1 = 0.01107 | 0.1049 | –
303.15 K, m1 = 0.01172 | 0.1117 | –
303.15 K, m1 = 0.01245 | 0.1161 | –
303.15 K, m1 = 0.01285 | 0.1192 | –
303.15 K, m1 = 0.01328 | 0.1216 | –
303.15 K, m1 = 0.01374 | 0.1236 | –
303.15 K, m1 = 0.01423 | 0.1258 | –
303.15 K, m1 = 0.01476 | 0.127 | –
303.15 K, m1 = 0.01533 | 0.1296 | –
303.15 K, m1 = 0.01594 | 0.1313 | –
303.15 K, m1 = 0.01661 | 0.1328 | –
303.15 K, m1 = 0.01733 | 0.1347 | –
303.15 K, m1 = 0.01812 | 0.1365 | –
303.15 K, m1 = 0.01898 | 0.1386 | –
303.15 K, m1 = 0.01993 | 0.141 | –
308.15 K, m1 = 0.00994 | 0.1048 | –
308.15 K, m1 = 0.01047 | 0.1099 | –
308.15 K, m1 = 0.01105 | 0.1157 | –
308.15 K, m1 = 0.0117 | 0.1216 | –
308.15 K, m1 = 0.01243 | 0.1282 | –
308.15 K, m1 = 0.01283 | 0.1315 | –
308.15 K, m1 = 0.01326 | 0.1349 | –
308.15 K, m1 = 0.01372 | 0.1375 | –
308.15 K, m1 = 0.01421 | 0.1402 | –
308.15 K, m1 = 0.01473 | 0.1421 | –
308.15 K, m1 = 0.0153 | 0.1447 | –
308.15 K, m1 = 0.01591 | 0.1463 | –
308.15 K, m1 = 0.01658 | 0.1485 | –
308.15 K, m1 = 0.0173 | 0.151 | –
308.15 K, m1 = 0.01809 | 0.153 | –
308.15 K, m1 = 0.01895 | 0.1563 | –
308.15 K, m1 = 0.0199 | 0.1591 | –
313.15 K, m1 = 0.01045 | 0.1198 | –
313.15 K, m1 = 0.01103 | 0.1258 | –
313.15 K, m1 = 0.01168 | 0.1323 | –
313.15 K, m1 = 0.01241 | 0.14 | –
313.15 K, m1 = 0.01281 | 0.1439 | –
313.15 K, m1 = 0.01324 | 0.1478 | –
313.15 K, m1 = 0.01369 | 0.1515 | –
313.15 K, m1 = 0.01418 | 0.155 | –
313.15 K, m1 = 0.01471 | 0.1577 | –
313.15 K, m1 = 0.01527 | 0.1602 | –
313.15 K, m1 = 0.01589 | 0.1631 | –
313.15 K, m1 = 0.01655 | 0.1654 | –
313.15 K, m1 = 0.01727 | 0.168 | –
313.15 K, m1 = 0.01805 | 0.1707 | –
313.15 K, m1 = 0.01891 | 0.1726 | –
318.15 K, m1 = 0.01043 | 0.1298 | –
318.15 K, m1 = 0.01101 | 0.1366 | –
318.15 K, m1 = 0.01165 | 0.1438 | –
318.15 K, m1 = 0.01238 | 0.1522 | –
318.15 K, m1 = 0.01278 | 0.1567 | –
318.15 K, m1 = 0.01321 | 0.1612 | –
318.15 K, m1 = 0.01367 | 0.166 | –
318.15 K, m1 = 0.01415 | 0.1704 | –
318.15 K, m1 = 0.01468 | 0.1739 | –
318.15 K, m1 = 0.01524 | 0.177 | –
318.15 K, m1 = 0.01585 | 0.1806 | –
318.15 K, m1 = 0.01651 | 0.1838 | –
318.15 K, m1 = 0.01723 | 0.1864 | –
318.15 K, m1 = 0.01802 | 0.1895 | –
318.15 K, m1 = 0.01887 | 0.1932 | –
318.15 K, m1 = 0.01983 | 0.1976 | –
323.15 K, m1 = 0.0104 | 0.1411 | –
323.15 K, m1 = 0.01098 | 0.1472 | –
323.15 K, m1 = 0.01163 | 0.1554 | –
323.15 K, m1 = 0.01236 | 0.1644 | –
323.15 K, m1 = 0.01275 | 0.169 | –
323.15 K, m1 = 0.01318 | 0.1743 | –
323.15 K, m1 = 0.01363 | 0.1794 | –
323.15 K, m1 = 0.01412 | 0.1851 | –
323.15 K, m1 = 0.01465 | 0.1902 | –
323.15 K, m1 = 0.01521 | 0.1949 | –
323.15 K, m1 = 0.01582 | 0.1998 | –
323.15 K, m1 = 0.01648 | 0.2018 | –
323.15 K, m1 = 0.01719 | 0.2068 | –
323.15 K, m1 = 0.01798 | 0.2118 | –
323.15 K, m1 = 0.01883 | 0.2128 | –
323.15 K, m1 = 0.01977 | 0.2199 | –

O [water] + CCCCCCCCCCCCCC[N+](C)(CCO)CCO.[Br-]
Conditions | surface tension liquid-gas [mN/m]
298.15 K, m2 = 0 | 72.17
